In patent US6399664B2, “Method of treating cancer, specifically leukemia, with ozone” (priority 1996, dated 2002):

How the values were obtained:
[1] = system: chronic myeloid leukemia (CML); assay: Conventional chemotherapy with Hydroxyurea of CML canine #198675
[2] = system: normal human peripheral blood mononuclear cells (PBMC); assay: Normal human PBMC colony formation in methylcellulose medium; assay type: cell-based; details: ozone 5, 10, 15, 25 μg/ml
Experimental: (§1) Ozone and ROI's were generated using medical grade oxygen from a high voltage corona discharge electrical ozone generator (Carpendale and Freeberg, 1991; Viebahn, 1994; FIG. 13). Liquid RPMI complete media suspension of K562 cell cultures or normal human whole blood (10 ml each treatment) was processed through a micro-bubbling device at several ozone concentrations (5, 10, 15, and 25 μg/ml). In addition, a 100% oxygen treated and non-processed control samples were also examined. After processing, complete blood counts were measured on all whole blood samples. Peripheral blood mononuclear cells (PBMC) were isolated using a standard density gradient of 1.077 g/ml and washed with Iscove's medium. Viability and cell counts were determined manually using a hemocytrometer and a 4% solution of Trypan blue. Cell concentrations were adjusted to 2.0×10^6 cells/ml. Cells were mixed in a 1:10 (v/v) ratio with methylcellulose medium with recombinant growth factors (#HCC-4434, StemCell Technologies Inc.) and plated to contain 2×10^5 cells per plate in duplicate for normal PBMCs and 2×10^4 for K562 cells. Plates were incubated at 37° C. in a CO2/O2 incubator. Colonies were scored on day 5, 8, 10 and day 14 according to the scoring criteria by StemCell Technologies. […]

K562 leukemic cell line = assay: K562 colony formation and differentiation in methylcellulose medium; assay type: cell-based, human
Experimental: Ozone and ROI's were generated using medical grade oxygen from a high voltage corona discharge electrical ozone generator (Carpendale and Freeberg, 1991; Viebahn, 1994; FIG. 13). Liquid RPMI complete media suspension of K562 cell cultures or normal human whole blood (10 ml each treatment) was processed through a micro-bubbling device at several ozone concentrations (5, 10, 15, and 25 μg/ml). In addition, a 100% oxygen treated and non-processed control samples were also examined. After processing, complete blood counts were measured on all whole blood samples. Peripheral blood mononuclear cells (PBMC) were isolated using a standard density gradient of 1.077 g/ml and washed with Iscove's medium. Viability and cell counts were determined manually using a hemocytrometer and a 4% solution of Trypan blue. Cell concentrations were adjusted to 2.0×10^6 cells/ml. Cells were mixed in a 1:10 (v/v) ratio with methylcellulose medium with recombinant growth factors (#HCC-4434, StemCell Technologies Inc.) and plated to contain 2×10^5 cells per plate in duplicate for normal PBMCs and 2×10^4 for K562 cells. Plates were incubated at 37° C. in a CO2/O2 incubator. Colonies were scored on day 5, 8, 10 and day 14 according to the scoring criteria by StemCell Technologies. The data results for cell viability, total colonies (proliferation) and individual colony cell types (differentiation) are presented in FIGS. 1-8.

[3] = system: chronic myeloid leukemia (CML); assay: Ozone/ROI therapy (iv injection, adjunct minor autohemotherapy) of CML canine #198675; assay type: in vivo
Experimental: The attending veterinarian discussed euthanasia and the ozone or ROI therapy described in this invention with the owner under strict confidence. The owner and all attending veterinarians signed consent and confidentiality forms and the ozone or ROI therapy began on Sep. 23, 1997 and continued for 16 weeks. Prior to each weekly ozone or ROI treatment the patient's complete blood counts were measured using a Coulter Counter Hematology Analyzer (Coulter Electronics Canada Co.). The leukocyte differential counts were determined manually by the pathologist and recorded in FIG. 14. Ozone and ROI's were generated from a high voltage corona discharge electrical ozone generator using medical grade oxygen as shown in FIG. 13. Ozone/oxygen gas (30 to 60 ml) was injected intra-venously (iv) through a sterile catheter needle (Abbocath-T, 22 g×11⁄4 in.; Abbott Ireland) inserted in the leg vein of the mammal (canine #198675) with a sterile extension set (79 cm, […], Abbott Ireland) attached to the syringe containing the ozone ROI gas mixture. The ozone/oxygen gas mixture was slowly injected over a 10 to 20 minute period to allow maximum gas absorption. The secondary or adjunct to the preferred route of administration was minor autohemotherapy (minor AHT) where heparinized whole blood (7 ml each treatment) was gently mixed in a disposable syringe or devise with increasing doses of ozone to a maximum of 25 ml at 34 to 42 μg/ml (dose is species specific). The blood gas mixture was allowed to equilibrate at room temperature for 1 to 5 minutes with intermittent mixing. The excess gas was evacuated prior to intramuscular (im) or subcutaneous (sc) injection of the ozonated blood at several locations. Patients were accessed prior to, during and post treatment by blood tests, clinical response, and biopsy when appropriate.

[4] = system: cultured human cancerous cell lines derived from lung, breast and uterine solid tumours; details: little damage to normal cell growth; cited from earlier work
[5] = system: normal human peripheral blood leukocytes; assay: Effects of ozone on normal human leukocytes run in parallel; assay type: cell-based; details: at the concentrations used
Experimental: as §1

[6] = system: K562, Human CML cell line; assay: K562 viability by Trypan blue exclusion after ozone micro-bubbling; assay type: cell-based; details: ozone 5, 10, 15, 25 μg/ml
Experimental: as §1

[7] = system: cytokine levels such as IL-1, IL-2 and IFN-γ; details: in humans; cited from earlier work
[8] = 500 mg twice daily for approximately one year
[9] = 16 μg/ml ozone injected, up to 197 ug total, in vivo concentration less than 0.25 μg/ml
[10] = 28 to 42 μg/ml ozone injected, up to 2100 ug total, in vivo concentration 0.5 to 1.5 μg/ml

In the case of `NC(=O)NO` [Hydroxyurea], the RBC counts [1, 8] was “increased with time”, the “WBC levels relative to normal canine range of 6.1 to 17.4×10^9 cells per liter” value [1, 8] was “never returned to the normal canine range” and the “side effects (clinical presentation)” value [1, 8] was “depression, lethargy, severe to mild diarrhea, anorexia, vomiting, weight loss, occasionally vaginal bleeding, abdominal pain and splenomegaly”. For the same molecule, the “total WBC counts” value [1, 8] was “decrease” and the “time of entering blast crisis after cessation of conventional chemotherapy” value ([1]; after one year of chemotherapy) was 1.5 months.
In the case of `O=[O+][O-]` [ozone], the “effects in the colonies from normal human PBMC” value [2] was “no deleterious effects”, the “colony differentiation, dose response” value (K562 leukemic cell line; increasing concentrations of ozone) was “increased colony differentiation into normal cells” and the “production of normal hematopoietic colonies (CFU-E, BFU-E, GM-CFU, CFU-GEMM) from K562” value (K562 leukemic cell line; ozone 5, 10, 15, 25 μg/ml) was “stimulates the production of normal hematopoietic colonies”. The “proliferation of leukemia derived colonies” value (K562 leukemic cell line; ozone 5, 10, 15, 25 μg/ml, total colonies) was “inhibits the proliferation”, the “effect on canine hematopoietic system” value [3, 9] was “significant activation” and the “production of leukemic cells” value [3, 9] was “significant increase”. For the same molecule, the “progression of CML (total WBC and RBC counts)” value ([3]; 16 week treatment) was “reversed the progression of CML”, the “effect on canine hematopoietic system” value [3, 10] was “significant inhibition” and the “production of leukemic cells” value [3, 10] was “significant reduction”. For the same molecule, the “patient's quality of life” value ([3]; CML canine #198675, weekly ozone/ROI treatment, 16 weeks) was “increase”, the diarrhea ([3]; CML canine #198675, diarrhea not related to CML) was “slight improvement in the diarrhea, although only temporary” and the vomiting ([3]; after the first two weeks of treatment) was “decrease”. The “ability of the immature stem cell to differentiate into the different blood cell types” value ([3]; ozone dose dependent, 16 to 42 μg/ml generated ozone concentration) was “improved”, the “total WBC counts” value ([3]; with the increase of the internal ozone concentration in the mammal) was “decrease” and the “growth of cultured human cancerous cell lines” value [4] was “selectively inhibit the growth”. The “effects on normal human leukocytes” value [5] was “no significant deleterious effects”, the “viability of malignant cells” value [6] was “reduction in the viability” and the “cytokine levels such as IL-1, IL-2 and IFN-γ” value [7] was “increases cytokine levels”.
